# Results as given in patent publication US8691762B2, “Methods and assays for treating subjects with SHANK3 deletion, mutation or reduced expression” (Mount Sinai School of Medicine, priority 2010, dated 2014).
# Entries after “also recorded” stand apart in the source; their conditions may differ.
# Assays:
# Shank3 heterozygous mice [1] = assay: Long-term potentiation at Schaffer collateral-CA1 synapses, hippocampal slices from treated Shank3 heterozygous mice; assay type: in vivo, mouse; conditions: for LTP (normalized field EPSP slope), higher dose: rhIGF-1 i.p. 240 μg/kg/day for 2 weeks from P13-15
# Description: FIG. 8. […] Ampakine CX1837 or HPCD vehicle is administered daily via i.p. injections (1.5 mg/kg body weight) starting at 2 weeks old and continued for 4 weeks for electrophysiological recordings.
# (§1) FIG. 10A-10B. Recombinant human IGF-1 (rhIGF-1) reverses deficits in long-term potentiation and basal synaptic properties at Schaffer collateral-CA1 synapses in Shank3 heterozygous mice in a dose-dependent fashion. rhIGF-1 is administered daily via i.p. injections (120 or 240 μg/kg body weight) starting at P13-15 and continued for 2 weeks for electrophysiological recordings. A. LTP was induced with high-frequency stimulation and normalized field EPSP slope was plotted as a function of time. […] B. AMPA receptor responses were assessed in the mice. Slices were incubated in the presence of APV and mean field EPSP slope as a function of fiber volley is shown for slices derived from wildtype (WT), Shank3 heterozygous (Het) mice, and Het injected with rhIGF-1. Deficits in AMPA receptor signaling observed in Shank3 heterozygotes were reversed with 2-week rhIGF-1 treatment.
# AMPA receptor = AMPA receptor component of I/O function (field EPSP slope vs fiber volley in presence of APV); assay type: in vivo, mouse; conditions: Shank3 Het
# Description: as §1
# IGF-1 has been approved for clinical use as a recombinant full-length protein. Full-length IGF-1 enters the CNS through an interaction with lipoprotein-related receptor 1 (LRP1), after activity dependent cleavage of IGF binding protein-3 (IGFBP-3) by matrix metalloproteinase-9 (MMP9) (Nishijima et al., 2010). […]
# Akt = assay: Western blot for total- and phospho-Akt in hippocampus; assay type: in vivo, mouse
# Text: FIG. 6. IGF1 treatment activates PI3K-Akt pathway in the hippocampus. PI3K binds to AMPARs and is required to maintain AMPAR surface expression during long-term potentiation.
# It is interesting to note that IGF-1 activates the mTOR/Akt pathway as this has been implicated in other neurodevelopmental disorders (Veenstra-Vanderweele et al., 2012).
# Shank3 heterozygous mice [2] = assay: Motor performance and learning, latency to fall off a rotating rod; assay type: in vivo, mouse; conditions: IGF-1 240 μg/kg/day for 2 weeks; male Shank3 Het vs vehicle
# Description: FIG. 11. IGF-1 treatment reverses motor deficits in Shank3 heterozygous mice.
# Phelan-McDermid syndrome frequently presents with hypotonia and at least transient motor deficits, and subtle motor deficits have been observed in Shank3-heterozygous mice (Bozdagi et al., 2010). To determine whether treatment with full-length IGF-1 may improve motor performance in Shank3-deficient mice, male heterozygous mice were treated with either vehicle or IGF-1 (240 μg/kg/day for 2 weeks).
# Shank3 KO mice = conditions: (1-3)IGF-1 peptide, same protocol as heterozygotes, N=2
# Description: Brief experimental procedures: Hippocampal slices (350 μm) are prepared from 1-3 month old Shank3 heterozygous, Shank3 knockout, and wildtype littermates, treated with (1-3) IGF-1 peptide, full-length IGF1, growth hormone, AMPAkine or saline or other appropriate control. Slices are perfused with Ringer's solution, bubbled with 95% O2/5% CO2, at 32° C., during extracellular recordings. Baseline of field excitatory postsynaptic potentials (fEPSPs) recorded from stratum radiatum in area CA1, evoked by stimulation of the Schaffer collateral-commissural afferents with bipolar tungsten electrodes placed into area CA3. Long-term potentiation (LTP) is induced either by a high-frequency stimulus (four trains of 100 Hz, 1 s stimulation separated by 5 min), or by theta-burst stimulation (TBS) (10 bursts of four pulses at 100 Hz separated by 200 ms), with a success rate >90% for control and genetically-modified animals with all stimulation protocols. To induce long-term depression (LTD), Schaffer collaterals were stimulated by a low frequency stimulus (900 pulses at 1 Hz for 15 min) or paired-pulse low frequency stimulus. LTD was induced with a success rate >90% for control animals. […]
Substance,"LTP (normalized field EPSP slope), lower dose (Shank3 heterozygous mice [1]; rhIGF-1 i.p. 120 μg/kg/day for 2 weeks, Shank3 Het)","LTP (normalized field EPSP slope), higher dose (Shank3 heterozygous mice [1]; Shank3 Het)","LTP (normalized field EPSP slope), higher dose (Shank3 heterozygous mice [1]; Shank3 Het, listed as rhIGF-1)","Mean slope of the I/O function (AMPA receptor component) (AMPA receptor; IGF-1 240 μg/kg/day i.p. 2 weeks, wildtype 0.625±0.08, untreated Het 0.31±0.045, p=0.004)","Deficits in AMPA receptor signaling (AMPA component of I/O function) (AMPA receptor; rhIGF-1 i.p. 240 μg/kg/day for 2 weeks, slices in APV)","phospho-Akt/Akt ratio (Akt; hippocampal lysates, Shank3 Het injected 2 weeks, n=10, vehicle 0.36±0.03 (n=8), 1-tailed p=0.040)","phosphorylation of Akt (pAkt1) (Akt; hippocampus, heterozygote mice, vs vehicle injected, n=3, P=0.0366)",Latency to fall off rotating rod / motor performance (Shank3 heterozygous mice [2]),"LTP (normalized field EPSP slope) (Shank3 heterozygous mice [1]; (1-3)IGF-1 i.p. 0.01 mg/g (10 μg/g/day) daily for 2 weeks from P13-15, Shank3 Het vs vehicle)",LTP (fEPSP versus time) (Shank3 KO mice)
"IGF-1: recombinant human IGF-1, a 7.6 kDa protein, SEQ ID NO:3",not associated with significant reversal,effective in rescuing defective LTP,reversed by the higher,0.618±0.075,reversed,0.55±0.04,increase,significantly longer latencies; also recorded: Significant enhancement of motor performance,,
glycine-proline-glutamic acid [(1-3)IGF-1],,,,,,,,,reversed; also recorded: restored normal hippocampal LTP,reversed the impairment in LTP
